# Literature values as cited in patent US20230149425A1, “PROCESS AND THERAPEUTIC COMPOSITION FOR TREATING AND PREVENTING SEVERE INJECTION SITE REACTIONS” (Brii Biosciences, Inc., priority 2021, published 2023).
# Key:
# [1] = lactating women
# [2] = oral
smiles,measurement,setting,value
"CC(=O)[C@H]1CC[C@H]2[C@@H]3CC[C@H]4C[C@H](O)CC[C@]4(C)[C@H]3CC[C@]12C [brexanolone, 5α-pregnane-3α-ol-20-one]",concentrations in milk and plasma,[1],low
same,risk to breastfed infants,[1],low risk
C[C@@]1(O)CC[C@H]2[C@H](CC[C@@H]3[C@@H]2CC[C@]2(C)[C@@H](C(=O)Cn4cc(C#N)cn4)CC[C@@H]32)C1 [SAGE-217],reduction of depressive symptoms in clinical trials,[2]; administration for 14 days,mixed results
same,adverse events versus placebo,[2]; clinical trials,more adverse events than the placebo
C[C@]12CCC(=O)C=C1CC[C@@H]1[C@@H]2C(=O)C[C@@]2(C)[C@H]1CC[C@]2(O)C(=O)CO [cortisone],safety and pain relief of injection in lactating women,,safe and efficient for pain relief
